Consider six molecules from patent publication US20250019346A1, “Salts of Ruxolitinib and Crystalline Forms Thereof” (Apotex Inc., priority 2021, published 2025).

SMILES strings stand for the structures. Where two headings read alike, the source gives them in different places.

For data set [1] the following is noted: uncapped samples, 40° C./75% RH. The method, then:
PXRD diffractograms were recorded on a Bruker D8 Discover powder X-ray diffractometer (Bruker AXS LLC, Karlsruhe, Germany). The generator was a Incoatec Microfocus Source (IμS) Cu tube (λ=1.54060 Å) with a voltage of 50 kV and current of 1.00 mA, using a divergence slit of 0.1 mm and collimator of 2.0 mm. For each sample, two frames were collected using a still scan with a PILATUS3 R 100K-A detector at the distance of 294.2 mm from the sample. Raw data were evaluated using the program DIFFRAC.EVA (Bruker AXS LLC, Karlsruhe, Germany).

The conditions of data set [2]: pH values 1.2, 4.5 and 6.8.
Data set [3] is described as follows: Comparative intrinsic dissolution testing (Wood apparatus). The format is physicochemical. The conditions noted are these: 900 mL deionized water, 75 rpm, sample compressed at 1.5 metric tons for 1 minute. The protocol:
Intrinsic dissolution rate (IDR) measurements were performed using a Wood apparatus. Samples were prepared by compressing 250-300 mg sample at 1.5 metric tons for 1 minute. A dissolution medium consisting of 900 mL deionized water, and rotation speed of 75 rpm, was used for each experiment.

For data set [4] the following is noted: per CDER review, NDA 202192; cited from earlier work.

For the molecule `CS(=O)(=O)O.N#CC[C@H](C1CCCC1)n1cc(-c2ncnc3[nH]ccc23)cn1` [Ruxolitinib mesylate Form APO-I], the “Change in the crystalline form (PXRD)” value in data set [1] (at least 8 months) is “no change in the crystalline form occurred”. Further, in data set [2], the Solubility result was “high solubility”.
Take `CC1=CC(=O)NS(=O)(=O)O1.N#CCC(C1CCCC1)n1cc(-c2ncnc3[nH]ccc23)cn1` (stereo not shown) [Ruxolitinib acesulfamate Form APO-II]: the “Change in the crystalline form (PXRD)” value in data set [1] (at least 5 months) was “no change in the crystalline form occurred”. Also, the “Intrinsic Dissolution Rate” value in data set [3] is 0.0767 mg min^−1 cm^−2.
Turning to `N#CCC(C1CCCC1)n1cc(-c2ncnc3[nH]ccc23)cn1.O=S(=O)(O)CCS(=O)(=O)O` (stereo not shown) [Ruxolitinib edisylate Form APO-I], the “Change in the crystalline form (PXRD)” value in data set [1] (at least 5 months) is “no change in the crystalline form occurred”. In data set [3], the “Intrinsic Dissolution Rate” value came out at 0.1711 mg min^−1 cm^−2.
For `CC1=CC(=O)NS(=O)(=O)O1.N#CC[C@H](C1CCCC1)n1cc(-c2ncnc3[nH]ccc23)cn1` [Ruxolitinib acesulfamate Form APO-I], in data set [1] (8 weeks), the “Change in the crystalline form (PXRD)” value is on record as “no change in the crystalline form occurred”. The “Intrinsic Dissolution Rate” value in data set [3] is given as 0.2261 mg min^−1 cm^−2.
`N#CC[C@H](C1CCCC1)n1cc(-c2ncnc3[nH]ccc23)cn1` [Ruxolitinib phosphate]: the “Intrinsic Dissolution Rate” value in data set [3] was found to be 0.0545 mg min^−1 cm^−2. In data set [4], the “Biopharmaceutics Classification System (BCS) class” value is listed as “Class I”, the Permeability entry is “high permeability” and the Solubility result is listed as “high solubility”.
As for `N#CCC(C1CCCC1)n1cc(-c2ncnc3[nH]ccc23)cn1.O=S(=O)(O)c1cccc2c(S(=O)(=O)O)cccc12` (stereo not shown) [Ruxolitinib napadisylate Form APO-I], the “Change in the crystalline form (PXRD)” value in data set [1] (at least 5 months) is reported as “no change in the crystalline form occurred”.
